According to the NIST ThermoML archive (doi:10.1016/j.jct.2014.01.012):

Assay: xn = mol fraction of the nth substance listed
Settings: 101 kPa, Liquid

CCCCCCn1cc[n+](C)c1.F[P-](F)(F)(F)(F)F [1-hexyl-3-methylimidazolium hexafluorophosphate] + CCOC(C)=O
Settings	mass density, Vibrating tube method [kg/m3]	speed of sound, Sing-around technique in a fixed-path interferometer [m/s]
293.15 K, x1 = 0.09053	985.573	1203.8
293.15 K, x1 = 0.1751	1047.27	1245.1
293.15 K, x1 = 0.2748	1103.27	1278.6
293.15 K, x1 = 0.3638	1142.32	1312.1
293.15 K, x1 = 0.4747	1181.82	1341.9
293.15 K, x1 = 0.5959	1215.82	1369.5
293.15 K, x1 = 0.6988	1239.42	1390.2
293.15 K, x1 = 0.7782	1254.92	1404.4
293.15 K, x1 = 0.8784	1272.57	1417.2
293.15 K, x1 = 0.9562	1285.17	1428.1
293.15 K, x1 = 1	1291.38	1436.9
298.15 K, x1 = 0.09053	980.708	1182.9
298.15 K, x1 = 0.1751	1042.71	1226
298.15 K, x1 = 0.2748	1098.95	1260.9
298.15 K, x1 = 0.3638	1138.08	1295.7
298.15 K, x1 = 0.4747	1177.55	1326.9
298.15 K, x1 = 0.5959	1211.68	1355.6
298.15 K, x1 = 0.6988	1235.47	1376.8
298.15 K, x1 = 0.7782	1251.3	1388.5
298.15 K, x1 = 0.8784	1269.1	1402.5
298.15 K, x1 = 0.9562	1281.27	1414.1
298.15 K, x1 = 1	1287.34	1423.5
303.15 K, x1 = 0.09053	975.56	1162.1
303.15 K, x1 = 0.1751	1037.99	1207
303.15 K, x1 = 0.2748	1094.55	1243.1
303.15 K, x1 = 0.3638	1133.41	1279.1
303.15 K, x1 = 0.4747	1173.05	1312.1
303.15 K, x1 = 0.5959	1207.51	1341.7
303.15 K, x1 = 0.6988	1231.55	1363.6
303.15 K, x1 = 0.7782	1247.62	1375.4
303.15 K, x1 = 0.8784	1265.46	1388.1
303.15 K, x1 = 0.9562	1277.49	1402.6
303.15 K, x1 = 1	1283.29	1410.6
308.15 K, x1 = 0.09053	970.46	1141.5
308.15 K, x1 = 0.1751	1033.19	1188.2
308.15 K, x1 = 0.2748	1089.85	1225.7
308.15 K, x1 = 0.3638	1128.89	1261.3
308.15 K, x1 = 0.4747	1168.92	1297.4
308.15 K, x1 = 0.5959	1203.51	1328
308.15 K, x1 = 0.6988	1227.75	1350.6
308.15 K, x1 = 0.7782	1243.95	1365
308.15 K, x1 = 0.8784	1261.82	1375.1
308.15 K, x1 = 0.9562	1273.69	1391
308.15 K, x1 = 1	1279.4	1398.2
313.15 K, x1 = 0.09053	964.46	1120.9
313.15 K, x1 = 0.1751	1027.59	1169.4
313.15 K, x1 = 0.2748	1084.79	1208.5
313.15 K, x1 = 0.3638	1124.28	1246.5
313.15 K, x1 = 0.4747	1164.75	1282.8
313.15 K, x1 = 0.5959	1199.65	1313.8
313.15 K, x1 = 0.6988	1224.15	1337.7
313.15 K, x1 = 0.7782	1240.32	1349.8
313.15 K, x1 = 0.8784	1258.46	1359.6
313.15 K, x1 = 0.9562	1270.35	1378
313.15 K, x1 = 1	1275.48	1386
318.15 K, x1 = 0.09053	960.532	1100.5
318.15 K, x1 = 0.1751	1023.8	1150.8
318.15 K, x1 = 0.2748	1080.46	1191.3
318.15 K, x1 = 0.3638	1119.61	1231.9
318.15 K, x1 = 0.4747	1160.23	1268.4
318.15 K, x1 = 0.5959	1195.59	1300.3
318.15 K, x1 = 0.6988	1220.56	1324.8
318.15 K, x1 = 0.7782	1236.86	1337.1
318.15 K, x1 = 0.8784	1254.52	1348.4
318.15 K, x1 = 0.9562	1266.02	1366
318.15 K, x1 = 1	1271.56	1374.2
323.15 K, x1 = 0.09053	955.246	1080.2
323.15 K, x1 = 0.1751	1018.76	1132.3
323.15 K, x1 = 0.2748	1075.54	1174.3
323.15 K, x1 = 0.3638	1114.9	1216.3
323.15 K, x1 = 0.4747	1155.92	1254.2
323.15 K, x1 = 0.5959	1191.86	1287.2
323.15 K, x1 = 0.6988	1217.05	1311.7
323.15 K, x1 = 0.7782	1233.69	1324.4
323.15 K, x1 = 0.8784	1251.25	1335.4
323.15 K, x1 = 0.9562	1262.25	1355.1
323.15 K, x1 = 1	1267.63	1362.5

CCCCCCCC[n+]1ccn(C)c1.F[P-](F)(F)(F)(F)F [1-octyl-3-methylimidazolium hexafluorophosphate] + CCCCOC(C)=O
Settings	mass density [kg/m3]	speed of sound [m/s]
293.15 K, x1 = 0.1078	957.599	1231.1
293.15 K, x1 = 0.2016	1010.44	1251
293.15 K, x1 = 0.3056	1058.02	1273.2
293.15 K, x1 = 0.3855	1088.56	1291.6
293.15 K, x1 = 0.4815	1119.98	1309.4
293.15 K, x1 = 0.5918	1150.6	1328.2
293.15 K, x1 = 0.6857	1173.18	1343.6
293.15 K, x1 = 0.7784	1193.01	1358.4
293.15 K, x1 = 0.8946	1215.11	1375.1
293.15 K, x1 = 1	1222.81	1388.2
298.15 K, x1 = 0.1078	953.226	1211.6
298.15 K, x1 = 0.2016	1006.23	1232.7
298.15 K, x1 = 0.3056	1053.87	1256.9
298.15 K, x1 = 0.3855	1084.42	1275
298.15 K, x1 = 0.4815	1115.96	1293.4
298.15 K, x1 = 0.5918	1146.75	1313.3
298.15 K, x1 = 0.6857	1169.44	1328.8
298.15 K, x1 = 0.7784	1189.32	1343.7
298.15 K, x1 = 0.8946	1211.35	1361.6
298.15 K, x1 = 1	1218.9	1373.4
303.15 K, x1 = 0.1078	948.745	1192.2
303.15 K, x1 = 0.2016	1001.93	1214.5
303.15 K, x1 = 0.3056	1049.62	1239.7
303.15 K, x1 = 0.3855	1080.26	1258.8
303.15 K, x1 = 0.4815	1111.97	1278.6
303.15 K, x1 = 0.5918	1142.89	1298.6
303.15 K, x1 = 0.6857	1165.73	1314.7
303.15 K, x1 = 0.7784	1185.68	1329.6
303.15 K, x1 = 0.8946	1207.65	1347.1
303.15 K, x1 = 1	1214.96	1359.3
308.15 K, x1 = 0.1078	944.257	1172.8
308.15 K, x1 = 0.2016	997.643	1196.4
308.15 K, x1 = 0.3056	1045.4	1222.6
308.15 K, x1 = 0.3855	1076.13	1242.8
308.15 K, x1 = 0.4815	1107.98	1263.5
308.15 K, x1 = 0.5918	1139.12	1284
308.15 K, x1 = 0.6857	1162.11	1300.8
308.15 K, x1 = 0.7784	1182.13	1315.8
308.15 K, x1 = 0.8946	1204.03	1333.5
308.15 K, x1 = 1	1211.13	1345.8
313.15 K, x1 = 0.1078	939.644	1153.7
313.15 K, x1 = 0.2016	993.304	1178.5
313.15 K, x1 = 0.3056	1041.23	1205.7
313.15 K, x1 = 0.3855	1072.05	1226.9
313.15 K, x1 = 0.4815	1104.1	1248.4
313.15 K, x1 = 0.5918	1135.23	1269.7
313.15 K, x1 = 0.6857	1158.31	1286.8
313.15 K, x1 = 0.7784	1178.4	1302.1
313.15 K, x1 = 0.8946	1200.3	1322.1
313.15 K, x1 = 1	1207.33	1332.7
318.15 K, x1 = 0.1078	935.027	1134.6
318.15 K, x1 = 0.2016	988.947	1160.7
318.15 K, x1 = 0.3056	1037	1189
318.15 K, x1 = 0.3855	1067.9	1211.2
318.15 K, x1 = 0.4815	1100.12	1233.6
318.15 K, x1 = 0.5918	1131.33	1255.5
318.15 K, x1 = 0.6857	1154.61	1273.1
318.15 K, x1 = 0.7784	1174.85	1288.7
318.15 K, x1 = 0.8946	1196.83	1309.5
318.15 K, x1 = 1	1203.5	1320.1
323.15 K, x1 = 0.1078	930.067	1115.7
323.15 K, x1 = 0.2016	984.404	1143
323.15 K, x1 = 0.3056	1032.8	1172.3
323.15 K, x1 = 0.3855	1063.84	1195.6
323.15 K, x1 = 0.4815	1096.14	1218.8
323.15 K, x1 = 0.5918	1127.43	1241.6
323.15 K, x1 = 0.6857	1150.89	1259.4
323.15 K, x1 = 0.7784	1171.35	1275.5
323.15 K, x1 = 0.8946	1193.45	1296.1
323.15 K, x1 = 1	1199.67	1307.7
